Measured values: ChEMBL document CHEMBL4196212, “Targeting Cytochrome P450 (CYP) 1B1 Enzyme with Four Series of A-Ring Substituted Estrane Derivatives: Design, Synthesis, Inhibitory Activity, and Selectivity” (J Med Chem, 2018)

Tests used:
CYP1A1 [1] = target: T1, CYP1A1 (Homo sapiens, UniProt P04798); experiment: Inhibition of recombinant human CYP1A1 at 3 uM incubated for 25 mins using 7-ethyl-O-resorufin substrate in presence of NADPH regenerating system by fluorescence based ethoxyresorufin-O-deethylase assay; format: ADME; details: recombinant human CYP1A1, probe 7-ethyl-O-resorufin (7-ethoxyresorufin)
T1 sequence (P04798 whole entry): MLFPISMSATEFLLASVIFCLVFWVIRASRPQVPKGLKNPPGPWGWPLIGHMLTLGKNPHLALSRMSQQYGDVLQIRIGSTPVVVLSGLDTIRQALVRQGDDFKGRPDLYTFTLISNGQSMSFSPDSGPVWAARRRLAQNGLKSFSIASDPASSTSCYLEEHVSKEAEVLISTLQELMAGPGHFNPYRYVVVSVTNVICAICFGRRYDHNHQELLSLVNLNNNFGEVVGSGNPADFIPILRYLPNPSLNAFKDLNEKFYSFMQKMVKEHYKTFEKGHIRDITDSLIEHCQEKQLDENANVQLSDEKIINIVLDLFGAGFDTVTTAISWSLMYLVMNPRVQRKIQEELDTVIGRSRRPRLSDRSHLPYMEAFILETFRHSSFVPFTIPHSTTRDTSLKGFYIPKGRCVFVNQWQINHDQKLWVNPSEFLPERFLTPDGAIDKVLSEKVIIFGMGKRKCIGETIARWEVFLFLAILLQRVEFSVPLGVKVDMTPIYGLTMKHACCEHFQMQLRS

Cytochrome P450 1B1 = target: T2, Cytochrome P450 1B1 (Homo sapiens, UniProt Q16678); experiment: Inhibition of recombinant human CYP1B1 incubated for 45 mins using 7-ethyl-O-resorufin substrate in presence of NADPH regenerating system by fluorescence based ethoxyresorufin-O-deethylase assay
T2 sequence (Q16678 whole entry): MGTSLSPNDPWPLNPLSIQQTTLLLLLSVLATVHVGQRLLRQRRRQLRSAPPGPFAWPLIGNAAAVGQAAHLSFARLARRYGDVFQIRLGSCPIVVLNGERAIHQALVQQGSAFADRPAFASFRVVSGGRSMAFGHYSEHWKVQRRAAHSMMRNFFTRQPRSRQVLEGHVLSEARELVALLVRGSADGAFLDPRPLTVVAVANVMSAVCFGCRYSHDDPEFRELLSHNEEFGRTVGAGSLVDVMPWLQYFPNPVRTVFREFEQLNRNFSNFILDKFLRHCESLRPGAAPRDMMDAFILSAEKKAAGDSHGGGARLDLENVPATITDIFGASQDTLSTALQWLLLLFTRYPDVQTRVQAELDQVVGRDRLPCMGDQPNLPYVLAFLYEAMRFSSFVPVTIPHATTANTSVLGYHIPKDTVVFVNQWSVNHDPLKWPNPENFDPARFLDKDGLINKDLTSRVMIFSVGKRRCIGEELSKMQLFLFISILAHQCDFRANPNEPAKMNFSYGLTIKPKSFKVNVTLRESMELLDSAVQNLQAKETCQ

CYP1B1 [2] = target: T3, CYP1B1 (Homo sapiens, UniProt Q16678); experiment: Inhibition of recombinant human CYP1B1 at 0.3 uM incubated for 45 mins using 7-ethyl-O-resorufin substrate in presence of NADPH regenerating system by fluorescence based ethoxyresorufin-O-deethylase assay; details: recombinant human CYP1B1, probe 7-ethyl-O-resorufin (7-ethoxyresorufin)
T3 sequence (Q16678 whole entry): T2 sequence (Q16678 whole entry)

CYP1A1 [3] = target: T1, CYP1A1; experiment: Inhibition of recombinant human CYP1A1 at 0.3 uM incubated for 25 mins using 7-ethyl-O-resorufin substrate in presence of NADPH regenerating system by fluorescence based ethoxyresorufin-O-deethylase assay; format: ADME; details: recombinant human CYP1A1, probe 7-ethyl-O-resorufin (7-ethoxyresorufin)
Homo sapiens = species on record: Homo sapiens; experiment: Selectivity index, ratio of IC50 for inhibition of recombinant human CYP1A1 to IC50 for inhibition of recombinant human CYP1B1
CYP1B1 [4] = target: T3, CYP1B1; experiment: Inhibition of recombinant human CYP1B1 at 3 uM incubated for 45 mins using 7-ethyl-O-resorufin substrate in presence of NADPH regenerating system by fluorescence based ethoxyresorufin-O-deethylase assay; details: recombinant human CYP1B1, probe 7-ethyl-O-resorufin (7-ethoxyresorufin)
Cytochrome P450 1A1 = target: T4, Cytochrome P450 1A1 (Homo sapiens, UniProt P04798); experiment: Inhibition of recombinant human CYP1A1 incubated for 25 mins using 7-ethyl-O-resorufin substrate in presence of NADPH regenerating system by fluorescence based ethoxyresorufin-O-deethylase assay; format: ADME
T4 sequence (P04798 whole entry): T1 sequence (P04798 whole entry)

SMILES | inhibition at 25 min, 3 µM (CYP1A1 [1]) [%] | IC50 (Cytochrome P450 1B1) [nM] | inhibition at 0.75 h, 0.3 µM (CYP1B1 [2]) [%] | inhibition at 25 min, 0.3 µM (CYP1A1 [3]) [%] | Ratio IC50 (Homo sapiens) | inhibition at 0.75 h, 3 µM (CYP1B1 [4]) [%] | IC50 (Cytochrome P450 1A1) [nM]
C#C[C@]1(O)CC[C@H]2[C@@H]3CCc4cc(O)c(-c5ccc(OC)cc5)cc4[C@H]3CC[C@@]21C | 23 | 370 | 58 | 7 | 25 | 94 | 9200
C[C@]12CC[C@@H]3c4cc(-c5ccc(F)cc5)c(O)cc4CC[C@H]3[C@@H]1CC[C@@H]2O | 0 | 240 | 91 | 3 | 20 | 103 | 4900
